The source of these data is patent publication US5811405A (Hoechst Aktiengesellschaft, priority 1996, dated 1998).

The target of one assay is T1, E selectin (Homo sapiens, UniProt P16581).
T1 construct: formed from the extracytoplasmic domain of either E selectin or P selectin; made in house; host or cells: COS-7 cells (ATCC), transient transfection with DEAE dextran; secreted into culture supernatant, captured on anti-human IgG
T1 sequence (P16581 22-556): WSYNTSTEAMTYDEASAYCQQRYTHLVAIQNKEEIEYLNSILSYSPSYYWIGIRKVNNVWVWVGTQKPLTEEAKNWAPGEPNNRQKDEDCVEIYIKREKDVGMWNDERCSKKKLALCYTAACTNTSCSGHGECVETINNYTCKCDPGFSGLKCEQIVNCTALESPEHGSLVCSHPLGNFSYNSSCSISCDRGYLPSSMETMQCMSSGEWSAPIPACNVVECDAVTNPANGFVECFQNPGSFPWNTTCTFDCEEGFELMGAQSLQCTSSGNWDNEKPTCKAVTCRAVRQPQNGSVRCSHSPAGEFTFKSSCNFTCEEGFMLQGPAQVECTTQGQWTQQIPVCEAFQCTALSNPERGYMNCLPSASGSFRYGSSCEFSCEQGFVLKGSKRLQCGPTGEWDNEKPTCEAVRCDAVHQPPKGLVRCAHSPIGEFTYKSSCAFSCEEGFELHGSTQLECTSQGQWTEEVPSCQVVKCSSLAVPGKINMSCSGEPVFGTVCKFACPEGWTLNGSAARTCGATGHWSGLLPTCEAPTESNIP
Briefly: HL60 cell adhesion assay on recombinant, soluble E selectin-IgG1 fusion protein. The format is cell-based. To be noted: HL60 cells. From the text: (§1) Primary assays for investigating the effect of the compounds according to the present invention on the adherence of cells to recombinant, soluble selectin fusion proteins.
(§2) In order to test the efficacy of the compounds according to the invention of the interaction between the E and P selectins (old nomenclature, ELAM-1 and GMP-140, respectively) and their ligands, an assay is used which is in each case specific for only one of these interactions. The ligands are presented in their natural form as surface structures on promyelocytic HL60 cells. […] Recombinantly prepared soluble fusion proteins, formed from the extracytoplasmic domain of either E selectin or P selectin and the constant region of a human immunoglobulin of the IgG1 subclass, were used as binding partners.
Preparation of L selektin-IgG1
The gene construct "ELAM-Rg", published by Walz et al., 1990, was used to prepare soluble […] fusion protein.
For the purposes of expression, the plasmid DNA was transfected into COS-7 cells (ATCC) using DEAE dextran (molecular biological methods: see Ausubel, F. M., Brent, R., Kingston, R. E., Moore, D. D., Seidman, J. G., Struhl, K. and Smith, J. A. 1990. Current Protocols in Molecular Biology, John Wiley, New York). […]

For the next assay, the target named is T2, P selectin (Homo sapiens, UniProt P16109).
T2 construct: formed from the extracytoplasmic domain of either E selectin or P selectin; made in house; culture supernatant, captured on anti-human IgG
T2 sequence (P16109 42-771): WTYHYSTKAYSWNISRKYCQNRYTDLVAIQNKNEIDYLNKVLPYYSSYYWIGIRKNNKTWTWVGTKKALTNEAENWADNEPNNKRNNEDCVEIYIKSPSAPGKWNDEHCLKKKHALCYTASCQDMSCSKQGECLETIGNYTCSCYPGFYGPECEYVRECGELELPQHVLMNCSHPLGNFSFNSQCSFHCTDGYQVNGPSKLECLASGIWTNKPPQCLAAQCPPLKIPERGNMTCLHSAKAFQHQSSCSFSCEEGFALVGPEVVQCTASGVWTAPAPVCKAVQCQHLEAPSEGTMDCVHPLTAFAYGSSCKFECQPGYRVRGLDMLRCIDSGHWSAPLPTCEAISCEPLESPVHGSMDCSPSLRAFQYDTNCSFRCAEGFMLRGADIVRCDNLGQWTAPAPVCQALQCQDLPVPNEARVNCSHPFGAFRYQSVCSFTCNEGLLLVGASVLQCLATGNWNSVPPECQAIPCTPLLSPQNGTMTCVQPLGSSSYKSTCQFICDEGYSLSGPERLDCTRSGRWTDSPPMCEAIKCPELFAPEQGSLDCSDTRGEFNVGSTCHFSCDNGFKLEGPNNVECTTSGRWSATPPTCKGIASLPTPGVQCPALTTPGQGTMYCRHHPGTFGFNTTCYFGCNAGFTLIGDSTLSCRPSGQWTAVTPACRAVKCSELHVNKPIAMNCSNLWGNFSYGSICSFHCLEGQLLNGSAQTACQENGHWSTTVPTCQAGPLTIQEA
The assay can be described thus: HL60 cell adhesion assay on recombinant, soluble P selectin-IgG1 fusion protein. To be noted: HL60 cells. The format is cell-based.
Text: as §1, §2
Preparation of P selectin-IgG1
The gene construct "CD62Rg", published by Aruffo et al., 1991, is used to prepare the soluble P selectin-IgG1 fusion protein. The subsequent procedure corresponds to the preparation of L selectin-IgG1 which was described in A1. Aruffo, A., Kolanus, W., Walz, G., Fredman, P. and Seed, B. 1991. CD62/-P-Selectin recognition of myeloid and tumor cell sulfatides. Cell 67, 35-44. […]
7. The quantity of BCECF-AM-labeled cells adhering in the wells is measured in a cytofluorimeter (Millipore) at a sensitivity setting of 4, an excitation wavelength of 485/22 nm and an emission wavelength of 530/25 nm.

The test system of assay [1] is adhesion of leukocytes to the endothelium. The assay can be described thus: Leukocyte adhesion in vivo (intravital microscopy on the rat mesentery, LPS-induced). Particulars: 10 mg/kg i.v., SPRD(m) rat, LPS 15 mg/kg 15 min after test substance; vs untreated controls. An excerpt: Leukocyte adhesion--Examination of the efficacy of the compounds according to the invention in vivo (intravital microscopy on the rat):
The induced adhesion of leukocytes is quantified in the rat mesentery using an intravital microscopic investigation technique (Atherton A. and Born G. V. R., Quantitative investigations of the adhesiveness of circulating polymorphonuclear leukocytes to blood vessel walls. J. Physiol. 222, 447-474, 1972); herein incorporated by reference. A prolonged anesthesia is instituted, under inhalation anesthesia with ether, by injecting urethane ([…] of body weight) intramuscularly. Blood vessels (femoral vein for injection of substances and carotid artery for measuring blood pressure) are exposed by dissection and catheters are then tied into them. After that, the corresponding transparent tissue (mesentery) is exposed spread out on a microscope stage and overlaid with paraffin oil at 37° C. […] The resulting increase in the adhesion of leukocytes to the endothelium is quantified directly by means of vital microscopy or using fluorescence dyes. […] The number of rolling leukocytes (i.e. all leukocytes which are visibly rolling and which are slower than the flowing erythrocytes) and the number of leukocytes which are adhering to the endothelium (dwell time longer than 5 seconds) are recorded every 10 minutes for a period of 60 minutes. […]

The test system of another assay is neutrophil adhesion. Briefly: Reperfusion model on the open rabbit heart (Langendorff), leukocyte accumulation and arrhythmias. To be noted: perfused rabbit heart, 30 min ischemia, 30 min reperfusion; vs untreated hearts. The method, then: Reperfusion model for investigating the influence of neutrophil adhesion in the course of ischemialreperfusion carried out on the open rabbit heart.
The hearts are perfused with nutrient solution, and also with/without leukocytes and/or active compound, at constant pressure using the Langendorff technique. After that, an ischemia is elicited by ligating the left coronary artery (30 min). Following reperfusion (30 min), the accumulation of leukocytes is evaluated histologically. During the course of the experiment, potentials and arrhythmias are measured at 256 electrodes (total duration of the experiment, approx. 90 min). […] The compounds according to the present invention, and also their physiologically tolerated salts, are very well suited, owing to their valuable pharmacological properties, for use as medicines in mammals, in particular humans.

The next assay deals with selectin receptors. Particulars: all known in-vitro test systems; Jacob et al., 1995; read-out: IC50 (inhibition of cell adhesion to selectin receptors); cited from earlier work.
The subject of assay [2] is myocardial reperfusion injuries. To be noted: M. Buerke et al., 1994; cited from earlier work.

With `C[C@@H]1O[C@@H](O[C@H](COCCCCCC(C(=O)O)C(=O)O)[C@@H](COCCCCCC(C(=O)O)C(=O)O)O[C@@H]2O[C@@H](C)[C@@H](O)[C@@H](O)[C@@H]2O)[C@@H](O)[C@H](O)[C@@H]1O` [Compound 6a, 1,4-bis(5-malonyl-1-pentyloxy)-2,3-bis(α-L-fucopyranosyl)-D-threitol], the results for the IC50 at E selectin and at P selectin were 500 to 1500 µM and 3500 to 4100 µM, respectively. For the same compound, the “inhibition (of leukocyte adhesion)” value in assay [1] is recorded as 39%.

Consider chondroitin sulfate, for which, in the assay with neutrophil adhesion, the arrhythmias entry is recorded as “fewer arrhythmias” and the leukocyte accumulation entry is “less leukocyte accumulation”.

Regarding sialyl Lewis X [SLeX], the IC50 at selectin receptors is roughly 1000 µM. Further, in assay [2], the “use in animal experiments, myocardial reperfusion injuries” value is recorded as “used successfully”.

What is called IC50 is the point on the concentration scale where inhibition reaches its midpoint.
